Results: patent US9920049B2 (priority 2014, dated 2018)

Test system: HBsAg
Assay: HBsAg assay (CLIA of secreted HBsAg in HepG2.2.15 culture supernatant)
Assay type: cell-based, HBV
Conditions: Hepatitis B virus
Method: HepG2.2.15 cells (Acs et al. Proc Natl Acad Sci USA, 84, (1987), 4641-4), a constitutively HBV-expressing cell line were cultured in DMEM+Glutamax-I medium (Invitrogen, Carlsbad, Calif., USA), supplemented with 10% fetal bovine serum (Invitrogen) and G418 (Invitrogen) at a final concentration of 200 mg/L and maintained in 5% CO2 at 37° C.
HepG2.2.15 cells were seeded in duplicate into white, 96-well plates at 1.5×10^4 cells/well. The cells were treated with a three-fold serial dilution series of the compounds in DMSO. The final DMSO concentration in all wells was 1% and DMSO was used as no drug control.
The HBsAg chemiluminescence immunoassay (CLIA) kit (Autobio Diagnostics Co., Zhengzhou, China, Catalog number: CL0310-2) was used to measure the levels of secreted HBV antigens semi-quantitatively. For the detection 50 μL/well culture supernatant was used and HBsAg was quantified using HBsAg chemiluminescence immunoassay (CLIA) kit (Autobio Diagnostics Co., Zhengzhou, China, Catalog number: CL0310-2), 50 μl of the supernatant was transferred to the CLIA assay plate and 50 μL of enzyme conjugate reagent was added into each well. The plates were sealed and gently agitated for 1 hour at room temperature. The supernatant-enzyme-mixture was discarded and wells were washed 6 times with 300 μL of PBS. The residual liquid was removed by plating the CLIA plate right side down on absorbent tissue paper. 25 μL of substrates A and B were added to each well. Luminance was measured using a luminometer (Mithras LB 940 Multimode Microplate Reader) after 10 minutes incubation. Dose-response curves were generated and the IC50 value was extrapolated by using the E-WorkBook Suite (ID Business Solutions Ltd., Guildford, UK).
The compounds of the present invention were tested for their capacity to inhibit HBsAg as described herein.

SMILES | IC50 [µM]
COCCCOc1cc2c(cc1OC)-c1cc(=O)c(C(=O)Nc3nnn[nH]3)cn1C(C(C)C)C2 (stereo not drawn) [Example 36, 6-isopropyl-10-methoxy-9-(3-methoxypropoxy)-2-oxo-N-(1H-tetrazol-5-yl)-6,7-dihydrobenzo[a]quinolizine-3-carboxamide] | 5.5
COCCCOc1cc2c(cc1Cl)-c1cc(=O)c(C(=O)Nc3nnn[nH]3)cn1C(C(C)C)C2 (stereo not drawn) [Example 37, 10-chloro-6-isopropyl-9-(3-methoxypropoxy)-2-oxo-N-(1H-tetrazol-5-yl)-6,7-dihydrobenzo[a]quinolizine-3-carboxamide] | 5.9
COCCCOc1cc2c(cc1Cl)-c1cc(=O)c(C(=O)Nc3nnn[nH]3)cn1[C@H](C(C)C)C2 [Example 38, (+)-10-chloro-6-isopropyl-9-(3-methoxypropoxy)-2-oxo-N-(1H-tetrazol-5-yl)-6,7-dihydrobenzo[a]quinolizine-3-carboxamide] | 2.3
